We go through one compound from patent publication US20170189496A1, “USE OF PHOSPHORYLATION PATHWAY-RELATED FACTOR IN REGULATING FUNCTION OF REGULATORY T CELL” (Institut Pasteur of Shanghai, Chinese Academy of Sciences, priority 2012, published 2017).

The structures appear in SMILES notation. “Also recorded” adds a separate entry of the source.

Common to all, as to format: cell-based
Test [1] has as its system induced Treg cells from human CD4+ CD45RA+ natural T cells. Put plainly: FOXP3 and CTLA4 expression in induced Treg (flow cytometry). Particulars: 50 uM, 48 h, vs DMSO control group. The procedure: Human CD4+ CD45RA+ natural T cells (i.e., natural T cells rather than Treg cells) were sorted by BD FACS Aria II flow sorter and expanded by Bead-CD3/CD28 (2:1), IL-2 (100 U/ml), and TGF-β (1 ng/ml, 3 ng/ml, and 5 ng/ml) for 5 days. DMSO or kaempferol (50 uM) was added and treated for 48 h. Flow cytometry analysis was performed after PE-FOXP3 (FIG. 14B) and APC-CTLA4 (FIG. 14A) antibody staining.
Human CD4+ CD45RA+ natural T cells (i.e., natural T cells rather than Treg cells) were sorted by BD FACS Aria II flow sorter and expanded using Bead-CD3/CD28 (2:1). IL-2 (100 U/ml), and TGF-β (1 ng/ml, 3 ng/ml, and 5 ng/ml) for 5 days to obtain the induced Treg cells. DMSO or kaempferol (50 uM) was added and treated for 48 h.
A general note: In flow cytometry, cells or beads pass a laser one at a time.

The target of test [2] is T1, PIM1 (Homo sapiens, UniProt P11309). Put plainly: FOXP3 S422 phosphorylation induced by PIM1 in HEK293T cells (immunoblot). Also on record: expressed in transfected cells; host or cells: HEK293T. The procedure:
Myc-FOXP3 and FLAG-PIM1 were co-transfected into HEK293T cells. After 36 h, cells were treated, respectively, with 50 nM, 10 nM, 2 nM, 0.4 nM of PIM1 inhibitor and 50 μM, 10 μM, 2 μM, 0.4 μM, 0.08 μM of kaempferol for 12 h. Cells were collected at 48 h after cell transfection.
(§1) Myc-FOXP3, FLAG-PIM1, FLAG-PIM2, and FLAG-PIM3 were co-transfected into HEK293T cells. 36 h later, cells were treated with 50 μM of kaempferol for 12 h. Cells were collected 48 h after cell transfection.
(§2) FLAG-PIM1 was transfected and MYC-FOXP3 and FLAG-PIM1 co-transfected into HEK293T cells. After 36 h, HEK293 was used as blank control group and each group was treated with 50 μM of kaempferol for 12 h. After 48 h, cells collected and lysed by cell lysis buffer. The levels of pS422-FOXP3, FOXP3, phosphorylated-histone H3 (Ser10), histone H3, and GAPDH were detected directly by immunoblot.
Protein samples were subjected to SDS-PAGE, and then transferred to nitrocellulose membrane, which was then sealed in TBST containing 5% nonfat dry milk or 3% bovine serum albumin for 1 h. […]
HEK293T cells were transfected with FLAG-PIM1, and co-transfected with MYC-FOXP3 and FLAG-PIM1. […] The levels of pS422-FOXP3, FOXP3, histone H3 Ser10 phosphorylation, histone H3, and GAPDH were directly detected by immunoblot (results shown in FIG. 12).
A general note: A western blot detects proteins with antibodies after separation by electrophoresis.

The subject of test [3] is Jurkat cells stably expressing HA-FOXP3. Put plainly: FOXP3 protein degradation induced by PMA/LPS in Jurkat cells stably expressing HA-FOXP3 (immunoblot). To be noted: PMA 25 ng/ml + LPS 1 ng/ml, 24 h; kaempferol 50 μM, PIM1 inhibitor 100 nM, PI3K inhibitor 10 μg/ml; DMSO control. On the procedure:
HA-FOXP3-Jurkat stable expression cells were treated with PMA (25 ng/ml) and LPS (1 ng/ml). 50 μM kaempferol, 100 nM PIM1 inhibitors (specifically of 4-[3-(4-chlorophenyl)-2,1-benzisoxazol-5-yl]-2-pyrimidinamine), and 10 μg/ml PI3K inhibitor (LY294002) were added, and DMSO as a control. Cells were collected 24 h later. The levels of FOXP3 and GAPDH were detected directly by immunoblot.
Human embryonic kidney cell line HEK293 was co-transfected with FUGW-HA-FOXP3, del 8.9 and VSV-G. Cell culture supernatants were collected 48 h and 72 h after transfection. Viruses were purified by ultracentrifugation and used to infect Jurkat E6.1 to ultimately obtain Jurkat cell lines stably expressing HA-FOXP3.
(§3) Protein samples were subjected to SDS-PAGE, and then transferred to nitrocellulose membrane, which was then sealed in TBST containing 5% nonfat dry milk or 3% bovine serum albumin for 1 h. Primary antibody was added and incubated for 1 h and then HRP-conjugated secondary antibody was added and incubated for 1 h, and results shown by exposure with ECL substrates.
Jurkat cells stably expressing HA-FOXP3 were treated with PMA (25 ng/ml) and LPS (1 ng/ml). Each sample was added 50 μM kaempferol, 100 nM PIM1 inhibitor (i.e., 4-[3-(4-chlorophenyl)-2,1-benzisoxazol-5-yl]-2-pyrimidinamine), and 10 μg/ml PI3K inhibitor (LY294002). DMSO serves as a control. Cells were collected after 24 h.

Test [4] deals with T2, PIM3 (Homo sapiens, UniProt Q86V86).
T2 construct: expressed in transfected cells; host or cells: HEK293T
Put plainly: FOXP3 phosphorylation induced by PIM3 in HEK293T cells (immunoblot). Particulars: Myc-FOXP3 + FLAG-PIM3, 50 μM, 12 h. On the procedure: as §1, §3
(§4) HEK293T cells were co-transfected, respectively, with Myc-FOXP3+FLAG-PIM1, Myc-FOXP3+FLAG-PIM2, and Myc-FOXP3+FLAG-PIM3. 36 h later, cells were treated with 50 μM kaempferol for 12 h. After 48 h. cells were collected and lysed with cell lysis buffer.

Test [5] addresses T1, PIM1. As to the kind of experiment: Histone H3 S10 phosphorylation induced by PIM1 in HEK293T cells (immunoblot). Also on record: expressed in transfected cells; host or cells: HEK293T. Particulars: 50 μM, 12 h. The procedure: FLAG-PIM1 was transfected into HEK293T cells. 36 h later, cells were treated with 50 μM of kaempferol for 12 h. 48 h after cell transfection, cells were treated in whole cell lysis solution. The levels of phosphorylated (Phospho)-histone H3S10, histone H3, and PIM1 were detected directly by immunoblot.
as §2, §3
HEK293T cells were co-transfected with MYC-FOXP3 and FLAG-PIM1. 36 h later, cells were treated with 50 μM of kaempferol for 12 h. Cells were collected at 48h after transfection and directly sonicated in SDS-loading buffer, and lysed by boiling.
HEK293T cells were transfected with FLAG-PIM1, and co-transfected with MYC-FOXP3 and FLAG-PIM1. 36 h later, HEK293 was used as blank control group and each group was treated with 50 μM of kaempferol for 12 h, respectively. Cells were collected alter 48 h and lysed with cell lysis buffer. The levels of pS422-FOXP3, FOXP3, histone H3 Ser10 phosphorylation, histone H3, and GAPDH were directly detected by immunoblot (results shown in FIG. 12).

Test [6] addresses T3, PIM2 (Homo sapiens, UniProt Q9P1W9).
T3 construct: expressed in transfected cells; host or cells: HEK293T
As to the kind of experiment: FOXP3 phosphorylation induced by PIM2 in HEK293T cells (immunoblot). To be noted: Myc-FOXP3 + FLAG-PIM2, 50 μM, 12 h. On the procedure: as §1, §3, §4

Where [7] appears, read: HEK293T transfected with FLAG-PIM1.

T1 sequence (P11309 whole entry): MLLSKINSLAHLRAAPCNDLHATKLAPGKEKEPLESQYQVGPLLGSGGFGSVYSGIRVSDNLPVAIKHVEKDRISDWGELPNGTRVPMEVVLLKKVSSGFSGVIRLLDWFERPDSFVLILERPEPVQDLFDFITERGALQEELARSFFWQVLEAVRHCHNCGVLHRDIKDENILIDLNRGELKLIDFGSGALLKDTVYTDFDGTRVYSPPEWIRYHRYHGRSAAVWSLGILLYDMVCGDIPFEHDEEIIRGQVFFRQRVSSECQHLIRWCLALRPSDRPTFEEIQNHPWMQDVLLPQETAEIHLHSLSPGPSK
T3 sequence (Q9P1W9 whole entry): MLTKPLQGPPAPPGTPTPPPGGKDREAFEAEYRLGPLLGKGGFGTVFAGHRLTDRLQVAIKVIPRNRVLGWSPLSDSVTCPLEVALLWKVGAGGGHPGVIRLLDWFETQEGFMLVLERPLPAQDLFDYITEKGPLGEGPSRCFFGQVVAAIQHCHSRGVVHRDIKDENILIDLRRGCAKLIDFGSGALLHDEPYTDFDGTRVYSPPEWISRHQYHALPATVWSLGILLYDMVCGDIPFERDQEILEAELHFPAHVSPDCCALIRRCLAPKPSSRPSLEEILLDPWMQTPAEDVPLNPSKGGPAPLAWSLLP

As for `O=c1c(O)c(-c2ccc(O)cc2)oc2cc(O)cc(O)c12` [kaempferol], in test [1], the “CLTA4+ FOXP3+ Treg cell levels” value was “significantly increase” and the FOXP3 expression levels entry was “significantly increase”. For the same compound, in test [2] (MYC-FOXP3 + FLAG-PIM1, 50, 10, 2, 0.4, 0.08 μM for 12 h), the “FOXP3 S422 phosphorylation, dose response” value is on record as “inhibits FOXP3 S422 phosphorylation in a dose-dependent manner”. For the same compound, the “FOXP3 S422 phosphorylation induced by PIM1” value in test [2] (Myc-FOXP3 + FLAG-PIM1, 50 μM, 12 h) is given as “specifically inhibits; also recorded: can inhibit”. Further, the FOXP3 protein degradation result in test [3] is recorded as “can inhibit”. In addition, the “FOXP3 phosphorylation levels induced by PIM3” value in test [4] is “does not affect”. Further, in test [5] (setting [7]), the PIM1 expression levels entry is reported as “does not affect” and the “histone H3 S10 phosphorylation induced by PIM1” value is on record as “inhibits; also recorded: can inhibit”. The “histone H3 S10 phosphorylation in the control group” value in test [5] (HEK293 blank control group (no PIM1 transfection)) was “does not affect”. Also, in test [6], the “FOXP3 phosphorylation levels induced by PIM2” value is recorded as “does not affect”.
